Where “and” joins values, the source holds several entries; their conditions need not be identical. Equal entries are not always repeated. Toxic doses and inconclusive results are not listed. Cut-off read from the data, not from the text of the source: active = T/C of 150% or more; inactive = T/C below 125%.
System: L1210 leukemia ip in BDF1 mice, survival T/C
Test: NCI In Vivo Anticancer Drug Screen. Data for tumor model L1210 Leukemia (intraperitoneal) in B6D2F1 (BDF1) mice
Conditions: endpoint: mean survival time, higher = longer survival
Summary of the method: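 Ratio derived from survival: compound-dosed mice over vehicle-dosed mice, all bearing a transplantable tumor.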

[1] = dose: 100.0 mg/kg/injection, schedule: Q01DX009 (ip), vehicle: Klucel (hydroxypropylcellulose) (HPC)
[2] = dose: 100.0 mg/kg/injection, schedule: Q01DX009 (ip), vehicle: saline with Tween-80
[3] = dose: 100.0 mg/kg/injection, schedule: Q04DX003 (ip), vehicle: saline with Tween-80
[4] = dose: 200.0 mg/kg/injection, schedule: Q01DX009 (ip), vehicle: Klucel (hydroxypropylcellulose) (HPC)
[5] = dose: 200.0 mg/kg/injection, schedule: Q04DX003 (ip), vehicle: saline with Tween-80
[6] = dose: 400.0 mg/kg/injection, schedule: Q01DX009 (ip), vehicle: saline with Tween-80
[7] = dose: 400.0 mg/kg/injection, schedule: Q04DX003 (ip), vehicle: saline with Tween-80
[8] = dose: 50.0 mg/kg/injection, schedule: Q04DX003 (ip), vehicle: saline
[9] = dose: 100.0 mg/kg/injection, schedule: Q04DX003 (ip), vehicle: saline
[10] = dose: 100.0 mg/kg/injection, schedule: Q04DX003 (ip), vehicle: Klucel (hydroxypropylcellulose) (HPC)
[11] = dose: 200.0 mg/kg/injection, schedule: Q04DX003 (ip), vehicle: Klucel (hydroxypropylcellulose) (HPC)
[12] = dose: 400.0 mg/kg/injection, schedule: Q04DX003 (ip), vehicle: Klucel (hydroxypropylcellulose) (HPC)

Measured: T/C

COc1cc(C=C(C#N)C#N)cc(I)c1O
inactive: dose: 25.0 mg/kg/injection, schedule: Q04DX003 (ip), vehicle: Klucel (hydroxypropylcellulose) (HPC) 98 % of control | dose: 50.0 mg/kg/injection, schedule: Q04DX003 (ip), vehicle: Klucel (hydroxypropylcellulose) (HPC) 104 % of control

CC(=O)OCC(OC(C)=O)C(OC1OC(COC(C)=O)C(OC(C)=O)C(OC(C)=O)C1OC(C)=O)C(OC(C)=O)C(C=O)OC(C)=O (centres undefined)
inactive: dose: 50.0 mg/kg/injection, schedule: Q01DX009 (ip), vehicle: Klucel (hydroxypropylcellulose) (HPC) 96 % of control | [1] 89 % of control | [2] 102 % of control | [3] 102 % of control | [4] 89 % of control | dose: 200.0 mg/kg/injection, schedule: Q01DX009 (ip), vehicle: saline with Tween-80 102 % of control | [5] 105 % of control | [6] 102 % of control | [7] 94 % of control

CC12CC3CC(Br)(C1)CC(C#N)(C3)C2 (centres undefined)
inactive: dose: 6.0 mg/kg/injection, schedule: Q04DX002 (ip), vehicle: Klucel (hydroxypropylcellulose) (HPC) 109 % of control | dose: 12.0 mg/kg/injection, schedule: Q04DX002 (ip), vehicle: Klucel (hydroxypropylcellulose) (HPC) 98 % of control | dose: 25.0 mg/kg/injection, schedule: Q04DX002 (ip), vehicle: Klucel (hydroxypropylcellulose) (HPC) 94 % of control

O=C(Nc1ccc(Cl)c(Cl)c1)O/N=C/c1ccccn1
inactive: dose: 50.0 mg/kg/injection, schedule: Q01DX009 (ip), vehicle: saline with Tween-80 96 % of control | [2] 91 % of control and 92 % of control | [3] 95 % of control | [5] 90 % of control | [6] 91 % of control | [7] 91 % of control

Cc1cc(C)c(C)[nH]1
inactive: dose: 6.25 mg/kg/injection, schedule: Q01DX009 (ip), vehicle: water 104 % of control | dose: 12.5 mg/kg/injection, schedule: Q01DX009 (ip), vehicle: water 101 % of control | dose: 25.0 mg/kg/injection, schedule: Q01DX009 (ip), vehicle: water 114 % of control | dose: 50.0 mg/kg/injection, schedule: Q01DX009 (ip), vehicle: water 105 % of control and 121 % of control

CCN(CC)CCOc1ccc(Br)cc1
inactive: dose: 25.0 mg/kg/injection, schedule: Q04DX003 (ip), vehicle: saline 105 % of control | dose: 50.0 mg/kg/injection, schedule: Q01DX009 (ip), vehicle: saline 102 % of control | [8] 100 % of control | dose: 100.0 mg/kg/injection, schedule: Q01DX009 (ip), vehicle: saline 102 % of control | [9] 103 % of control and 111 % of control

CN(C)CCC(=O)c1cccc([N+](=O)[O-])c1
inactive: dose: 75.0 mg/kg/injection, schedule: Q01DX001 (ip), vehicle: other 102 % of control

N#Cc1ccc(/C=C/C(=O)c2ccccc2)cc1
inactive: dose: 100.0 mg/kg/injection, schedule: Q01DX001 (ip), vehicle: Klucel (hydroxypropylcellulose) (HPC) 95 % of control | [1] 96 % of control | dose: 200.0 mg/kg/injection, schedule: Q01DX001 (ip), vehicle: Klucel (hydroxypropylcellulose) (HPC) 88 % of control | [4] 93 % of control | dose: 400.0 mg/kg/injection, schedule: Q01DX009 (ip), vehicle: Klucel (hydroxypropylcellulose) (HPC) 89 % of control

O=C([S][Ge]([c]1ccccc1)([c]1ccccc1)[c]1ccccc1)c1ccc([N+](=O)[O-])cc1
inactive: [1] 114 % of control | [4] 92 % of control

Brc1ncnc2nc[nH]c12
inactive: dose: 62.5 mg/kg/injection, schedule: Q01DX Z (ip), vehicle: carboxymethylcellulose (CMC) 97 % of control | dose: 75.0 mg/kg/injection, schedule: Q01DX Z (ip), vehicle: carboxymethylcellulose (CMC) 120 % of control | dose: 100.0 mg/kg/injection, schedule: Q01DX Z (ip), vehicle: methylcellulose (MC) 111 % of control | dose: 125.0 mg/kg/injection, schedule: Q01DX Z (ip), vehicle: carboxymethylcellulose (CMC) 121 % of control | dose: 200.0 mg/kg/injection, schedule: Q01DX Z (ip), vehicle: methylcellulose (MC) 120 % of control

CCCCNC(=O)NC/C(Br)=C/Br
inactive: dose: 75.0 mg/kg/injection, schedule: Q01DX009 (ip), vehicle: Klucel (hydroxypropylcellulose) (HPC) 101 % of control | [10] 98 % of control | dose: 150.0 mg/kg/injection, schedule: Q01DX009 (ip), vehicle: Klucel (hydroxypropylcellulose) (HPC) 100 % of control | [11] 96 % of control | dose: 300.0 mg/kg/injection, schedule: Q01DX009 (ip), vehicle: Klucel (hydroxypropylcellulose) (HPC) 97 % of control | [12] 93 % of control

COc1cc(NC(C)CCCN2C(=O)c3ccccc3C2=O)c2nc(-c3ccc(Cl)cc3)ccc2c1 (centres undefined)
inactive: [8] 90 % of control | dose: 100.0 mg/kg/injection, schedule: Q01DX009 (ip), vehicle: other 94 % of control | [9] 92 % of control | dose: 200.0 mg/kg/injection, schedule: Q01DX009 (ip), vehicle: other 94 % of control | dose: 200.0 mg/kg/injection, schedule: Q04DX003 (ip), vehicle: saline 90 % of control | dose: 400.0 mg/kg/injection, schedule: Q01DX009 (ip), vehicle: other 101 % of control | dose: 400.0 mg/kg/injection, schedule: Q04DX003 (ip), vehicle: saline 87 % of control

O=C(O)CS(=O)(=O)Cc1ccc(Cl)cc1
inactive: dose: 100.0 mg/kg/injection, schedule: Q04DX002 (ip), vehicle: saline with Tween-80 95 % of control | dose: 200.0 mg/kg/injection, schedule: Q04DX002 (ip), vehicle: saline with Tween-80 113 % of control | dose: 400.0 mg/kg/injection, schedule: Q04DX002 (ip), vehicle: saline with Tween-80 95 % of control

O=C(CC(O)(C(F)(F)F)C(F)(F)F)c1ccc(C(O)CC(O)(C(F)(F)F)C(F)(F)F)cc1 (centres undefined)
inactive: dose: 25.0 mg/kg/injection, schedule: Q01DX009 (ip), vehicle: gum acacia 106 % of control | dose: 25.0 mg/kg/injection, schedule: Q04DX003 (ip), vehicle: gum acacia 102 % of control | dose: 50.0 mg/kg/injection, schedule: Q01DX009 (ip), vehicle: gum acacia 89 % of control | dose: 50.0 mg/kg/injection, schedule: Q04DX003 (ip), vehicle: gum acacia 90 % of control | dose: 100.0 mg/kg/injection, schedule: Q04DX003 (ip), vehicle: gum acacia 93 % of control and 98 % of control

C[Si](C)(CCCC(N)C(=O)O)O[Si](C)(C)CCCC(N)C(=O)O (centres undefined)
inactive: [10] 98 % of control | [11] 100 % of control | [12] 98 % of control

CC[N+](C)(CC)CCC[N+]1(C)CC2CC=CCC2C1 (centres undefined)
inactive: dose: 55.0 mg/kg/injection, schedule: Q01DX Z (ip), vehicle: saline 103 % of control | dose: 83.0 mg/kg/injection, schedule: Q01DX Z (ip), vehicle: saline 97 % of control | dose: 125.0 mg/kg/injection, schedule: Q01DX Z (ip), vehicle: saline 96 % of control

Source: PubChem BioAssay AID248 (DTP/NCI, 2004)
